Active and inactive are the calls of the source.
How the values were obtained:
[1] = biological target: Luciferin 4-monooxygenase (Photinus pyralis, UniProt P08659); experiment: inhibition of purified Photinus pyralis luciferase – biochemical, luminescence, dose response (AID 1891)
[2] = blockade of melanocortin 4 receptor signaling – cell-based, plate reader, cherry pick, counter-screen for LGR2 antagonist project, dose response (AID 743444); assay type: functional;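 note: transfected HEK 293 cells stimulated with alpha-MSH peptide; potency of inhibitors of the alpha-MSH evoked signal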
[3] = blockers of bursicon-stimulated LGR2 cAMP reporter – cell-based, HEK293, CRE-luciferase reporter, cherry pick, set 2, dose response (AID 743343); assay type: functional;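 note: transfected cells were stimulated with diluted bursicon conditioned medium after compound addition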
[4] = toxicity toward HepG2 liver cells – cell-based, plate reader, cherry-pick, antagonist series, cytotoxicity control, dose response (AID 743416); assay type: functional
[5] = Luminescence Cell-Based Dose Confirmation HTS to Identify Inhibitors of Platelet Dense Granule Release. [Related pubchem assays: 1663 (Primary HTS), 1678 (Summary of Project)]; assay type: functional
[6] = A549 cell cytotoxicity, dose response, cytotoxicity control, plate reader, cherry-pick, antagonist series (AID 743412); assay type: functional, cell-based
Cytochrome P450 2C9 = Cytochrome P450 2C9 (Homo sapiens, UniProt P11712)
Cytochrome P450 2C9, sequence (P11712 whole entry): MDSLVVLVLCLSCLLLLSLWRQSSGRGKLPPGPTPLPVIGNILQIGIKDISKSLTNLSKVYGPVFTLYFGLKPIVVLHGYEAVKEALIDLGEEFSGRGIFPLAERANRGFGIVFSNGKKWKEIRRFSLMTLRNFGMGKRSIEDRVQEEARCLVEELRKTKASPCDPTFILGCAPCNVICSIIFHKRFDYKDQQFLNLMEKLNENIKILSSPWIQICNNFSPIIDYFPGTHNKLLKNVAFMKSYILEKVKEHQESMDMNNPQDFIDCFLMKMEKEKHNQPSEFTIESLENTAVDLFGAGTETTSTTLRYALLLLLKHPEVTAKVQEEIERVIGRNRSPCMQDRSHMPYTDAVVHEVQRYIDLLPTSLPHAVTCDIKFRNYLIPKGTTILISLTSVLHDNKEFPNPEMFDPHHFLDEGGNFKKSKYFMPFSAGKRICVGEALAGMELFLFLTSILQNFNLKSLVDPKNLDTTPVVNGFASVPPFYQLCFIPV

[7] = biological target: T1, Calpain-2 catalytic subunit (Sus scrofa, UniProt P43367); experiment: m-calpain protease blockers, concentration series – biochemical, fluorogenic peptide substrate, dose response (AID 1420); assay type: functional
T1 sequence (P43367 whole entry): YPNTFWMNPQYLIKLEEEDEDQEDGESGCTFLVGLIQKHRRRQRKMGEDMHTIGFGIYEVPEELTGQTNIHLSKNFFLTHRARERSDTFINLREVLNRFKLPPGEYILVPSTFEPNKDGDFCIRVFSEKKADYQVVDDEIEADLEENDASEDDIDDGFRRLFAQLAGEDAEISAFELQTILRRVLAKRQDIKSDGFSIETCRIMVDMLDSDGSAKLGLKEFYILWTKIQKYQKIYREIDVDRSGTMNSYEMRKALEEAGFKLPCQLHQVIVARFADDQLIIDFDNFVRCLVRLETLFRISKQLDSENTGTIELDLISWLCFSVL

Melanocortin receptor 4 = Melanocortin receptor 4 (Homo sapiens, UniProt P32245); assay type: functional, cell-based;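 note: Cell-based assay with luminescence read-out, confirmatory dose-response testing for agonist activity of biased ligands at MC4R; human U2OS cells with tagged receptor and beta-arrestin; potency of agonists that increase receptor coupling to beta-arrestin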
Melanocortin receptor 4, sequence (P32245 whole entry): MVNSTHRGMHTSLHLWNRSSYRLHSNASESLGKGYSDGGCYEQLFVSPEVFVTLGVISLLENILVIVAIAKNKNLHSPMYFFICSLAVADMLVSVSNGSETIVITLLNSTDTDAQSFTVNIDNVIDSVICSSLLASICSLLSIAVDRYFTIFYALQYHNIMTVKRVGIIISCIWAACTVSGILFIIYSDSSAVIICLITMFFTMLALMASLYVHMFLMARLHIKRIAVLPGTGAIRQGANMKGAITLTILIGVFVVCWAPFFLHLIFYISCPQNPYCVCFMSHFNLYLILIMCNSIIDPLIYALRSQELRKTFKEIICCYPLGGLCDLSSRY

Cytochrome P450 1A2 = biological target: T2, Cytochrome P450 1A2 (Homo sapiens, UniProt P05177);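 note: PubChem cytochrome P450 panel assay, CYP1A2 panel member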
T2 sequence (P05177 whole entry): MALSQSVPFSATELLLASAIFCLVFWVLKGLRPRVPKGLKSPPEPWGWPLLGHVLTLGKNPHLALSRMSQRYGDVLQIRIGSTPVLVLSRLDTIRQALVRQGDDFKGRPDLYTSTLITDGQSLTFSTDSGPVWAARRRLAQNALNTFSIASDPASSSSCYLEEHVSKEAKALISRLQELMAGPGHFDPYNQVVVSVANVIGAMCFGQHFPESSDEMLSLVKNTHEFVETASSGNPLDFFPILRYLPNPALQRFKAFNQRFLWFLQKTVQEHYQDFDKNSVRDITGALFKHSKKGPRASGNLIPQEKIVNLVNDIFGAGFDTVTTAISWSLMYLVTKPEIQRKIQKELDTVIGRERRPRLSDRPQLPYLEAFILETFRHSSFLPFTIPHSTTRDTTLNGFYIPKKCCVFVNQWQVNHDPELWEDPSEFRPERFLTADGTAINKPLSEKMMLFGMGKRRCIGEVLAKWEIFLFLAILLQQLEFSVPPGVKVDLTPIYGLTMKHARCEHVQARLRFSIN

[8] = activation of miR-122 Renilla sensor silencing – cell-based, Huh7 psiCHECK-miR122, Renilla luciferase, cherry-picked, dose response (AID 651956); assay type: functional;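 note: huh7 hepatoma cells stably carrying a psiCHECK-2 miR-122 sensor plasmid; renilla luciferase signal reporting endogenous miR-122 activity after 48 h compound exposure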
[9] = general mammalian cell viability loss – activator set, cherry-pick, cytotoxicity control for miR-122 modulator project, dose response (AID 720690); assay type: functional, cell-based;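 note: HEK293T human cells scored for general mammalian cytotoxicity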
[10] = biological target: T3, Oxysterols receptor LXR-beta (Homo sapiens, UniProt P55055); assay type: functional, cell-based;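 note: Cell-based luminescence dose-response assay of agonist activity at LXR, run as a confirmatory counterscreen to a daf-12 agonist screen; HEK293 cells with Gal4-LXR fusion and GAL4-driven luciferase reporter; agonist potency from rising luciferase signal of a Gal4-LXR reporter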
T3 sequence (P55055 whole entry): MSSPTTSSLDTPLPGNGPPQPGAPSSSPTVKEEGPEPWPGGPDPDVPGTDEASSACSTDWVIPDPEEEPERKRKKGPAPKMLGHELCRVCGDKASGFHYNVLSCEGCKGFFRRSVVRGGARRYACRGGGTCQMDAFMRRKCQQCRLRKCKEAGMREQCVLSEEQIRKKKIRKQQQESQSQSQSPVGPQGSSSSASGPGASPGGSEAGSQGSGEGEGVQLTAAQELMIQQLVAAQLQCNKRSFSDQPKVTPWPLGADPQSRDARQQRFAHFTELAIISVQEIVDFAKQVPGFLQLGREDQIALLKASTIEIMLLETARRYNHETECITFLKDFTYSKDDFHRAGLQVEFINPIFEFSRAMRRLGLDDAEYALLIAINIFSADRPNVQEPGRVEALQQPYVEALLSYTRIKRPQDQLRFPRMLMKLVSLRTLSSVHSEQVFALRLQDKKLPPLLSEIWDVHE

[11] = Luminescence-based cell-based high throughput dose response assay to identify activators of the DAF-12 from the parasite S. stercoralis (ssDAF-12).; assay type: functional
fMet-Leu-Phe receptor = biological target: T4, fMet-Leu-Phe receptor (Homo sapiens, UniProt P21462); experiment: formyl peptide receptor binders – dose response (AID 519); assay type: functional
T4 sequence (P21462 whole entry): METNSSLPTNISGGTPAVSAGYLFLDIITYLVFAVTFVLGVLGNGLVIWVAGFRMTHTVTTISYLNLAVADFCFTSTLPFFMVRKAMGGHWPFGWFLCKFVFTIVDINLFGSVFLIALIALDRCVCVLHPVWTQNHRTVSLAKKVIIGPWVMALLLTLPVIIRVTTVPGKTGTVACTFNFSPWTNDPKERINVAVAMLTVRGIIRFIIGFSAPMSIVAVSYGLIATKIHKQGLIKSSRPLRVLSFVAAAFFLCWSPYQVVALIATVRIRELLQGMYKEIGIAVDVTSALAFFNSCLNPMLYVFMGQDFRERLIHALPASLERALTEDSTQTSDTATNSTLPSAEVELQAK

[12] = viability loss in HEK293 cells – cell-based, plate reader, cherry-picked samples, cytotoxicity control, dose response (AID 743446); assay type: functional
Cytochrome P450 3A4 = Cytochrome P450 3A4 (Homo sapiens, UniProt P08684); details: Potency;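 note: confirmatory qHTS run detecting inhibitors and substrates of CYP3A4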
Cytochrome P450 3A4, sequence (P08684 whole entry): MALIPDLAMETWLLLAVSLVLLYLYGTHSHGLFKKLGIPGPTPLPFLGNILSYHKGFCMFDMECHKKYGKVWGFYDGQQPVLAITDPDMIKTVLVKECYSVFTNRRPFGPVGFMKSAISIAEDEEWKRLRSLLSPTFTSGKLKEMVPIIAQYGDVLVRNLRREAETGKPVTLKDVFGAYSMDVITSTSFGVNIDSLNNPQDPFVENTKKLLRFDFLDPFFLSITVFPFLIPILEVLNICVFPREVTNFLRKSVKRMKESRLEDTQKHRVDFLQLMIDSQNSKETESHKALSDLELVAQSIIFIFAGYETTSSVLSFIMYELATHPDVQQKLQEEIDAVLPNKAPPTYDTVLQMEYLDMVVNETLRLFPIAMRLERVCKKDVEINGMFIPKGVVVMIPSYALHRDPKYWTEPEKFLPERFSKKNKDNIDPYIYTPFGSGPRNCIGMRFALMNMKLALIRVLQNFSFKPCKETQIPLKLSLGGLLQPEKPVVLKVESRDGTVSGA

[13] = Dd2 malaria parasite growth inhibition potency – SYBR Green, dry powder samples, dose response (AID 1159566); assay type: functional, cell-based;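 note: potency for growth inhibition with lower SYBR green DNA signal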
[14] = toxicity to human HepG2 hepatoma cells – cell-based, plate reader, dry powder samples, cytotoxicity control, dose response (AID 1159569); assay type: functional;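 note: inhibitor potency with signal falling toward the positive control level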
[15] = growth inhibition of PfATP4-mutant resistant parasites – NITD609-resistant line, SYBR Green, dry powder, dose response (AID 1159571); assay type: functional, cell-based;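 note: parasites synchronized at ring stage by sorbitol before testing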
[16] = toxicity to human hepatoma HepG2 cells – cell-based, cherry-picked samples, cytotoxicity control, dose response (AID 1159577); assay type: functional
[17] = P. falciparum Dd2 growth inhibitors, dose response, SYBR Green, cherry-picked samples (AID 1159567); assay type: functional, cell-based
[18] = growth inhibition of yeast DHODH-expressing 3D7 parasites – SYBR Green, dry powder samples, dose response (AID 1159570); assay type: functional, cell-based;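 note: parasite growth measured after 72 hours of compound exposure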
[19] = reduced cellular PGC1a acetyl-lysine signal – cell-based, cherry-picked samples, dose response (AID 720514); assay type: functional;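 note: potency may reflect raised or lowered acetylation signal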
[20] = biological target: T5, Microphthalmia-associated transcription factor (Homo sapiens, UniProt O75030); experiment: reducers of TRPM1 reporter luminescence, concentration series – cell-based, SK-MEL-5, cherry-picked, set 3, MITF inhibitor project, dose response (AID 493073); assay type: functional;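 note: SK-MEL-5 melanoma cells with luciferase driven by the MITF target TRPM1 promoter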
T5 sequence (O75030 whole entry): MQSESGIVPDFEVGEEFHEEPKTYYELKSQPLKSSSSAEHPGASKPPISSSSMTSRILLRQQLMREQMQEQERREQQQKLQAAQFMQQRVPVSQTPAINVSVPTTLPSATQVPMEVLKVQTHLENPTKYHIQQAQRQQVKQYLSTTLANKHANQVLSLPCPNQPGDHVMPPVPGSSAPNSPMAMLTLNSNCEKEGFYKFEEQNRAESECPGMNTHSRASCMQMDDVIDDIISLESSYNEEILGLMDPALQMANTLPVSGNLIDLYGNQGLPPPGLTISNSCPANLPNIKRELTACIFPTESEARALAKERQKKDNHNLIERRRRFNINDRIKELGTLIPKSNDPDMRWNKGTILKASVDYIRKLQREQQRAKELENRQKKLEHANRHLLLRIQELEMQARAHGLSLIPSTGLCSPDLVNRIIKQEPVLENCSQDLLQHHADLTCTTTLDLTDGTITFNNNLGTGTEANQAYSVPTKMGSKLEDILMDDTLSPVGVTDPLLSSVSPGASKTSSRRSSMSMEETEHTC

Luciferin 4-monooxygenase, sequence (P08659 whole entry): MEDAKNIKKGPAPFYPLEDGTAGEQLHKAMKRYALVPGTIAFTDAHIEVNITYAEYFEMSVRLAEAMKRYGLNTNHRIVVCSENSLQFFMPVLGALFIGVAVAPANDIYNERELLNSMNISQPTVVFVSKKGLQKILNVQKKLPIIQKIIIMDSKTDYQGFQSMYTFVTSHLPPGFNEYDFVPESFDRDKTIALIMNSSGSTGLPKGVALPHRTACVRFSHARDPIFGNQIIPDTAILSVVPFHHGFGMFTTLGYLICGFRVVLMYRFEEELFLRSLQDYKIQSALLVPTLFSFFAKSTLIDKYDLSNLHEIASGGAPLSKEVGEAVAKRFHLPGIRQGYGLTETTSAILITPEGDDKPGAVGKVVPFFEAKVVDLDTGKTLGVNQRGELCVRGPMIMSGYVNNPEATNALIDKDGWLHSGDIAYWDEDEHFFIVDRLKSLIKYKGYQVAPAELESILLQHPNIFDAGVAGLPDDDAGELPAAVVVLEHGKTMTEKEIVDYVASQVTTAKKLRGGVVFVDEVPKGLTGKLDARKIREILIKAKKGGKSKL

Cc1ccccc1/N=C/C1=C(O)c2ccccc2C1=O
EC50 [1]: 1.02 µM (active)
AC50 [2]: 1.67 µM (active)
AC50 [3]: 1.03 µM (active)
AC50 [4]: > 52 µM (inactive)
EC50 [5]: 3.79 µM (active)
AC50 [6]: > 52 µM (inactive)

CCOc1ccc(NC(=S)NC(=O)/C=C/c2ccc(C)cc2)c([N+](=O)[O-])c1
AC50 (Cytochrome P450 2C9): 3.55 µM (inconclusive)
IC50 [7]: > 50 µM (not active)
EC50 (Melanocortin receptor 4): > 89.2 µM (inactive)
AC50 (Cytochrome P450 1A2): 15.8 µM (inconclusive)

C[C@@H]1CN([C@@H](C)CO)S(=O)(=O)c2ccc(C#Cc3ccncc3)cc2O[C@@H]1CN(C)C(=O)C1CCOCC1
AC50 [8]: 466 nM (active)

C[C@@H]1CN([C@H](C)CO)S(=O)(=O)c2ccc(C#Cc3ccccc3F)cc2O[C@@H]1CN(C)C(=O)c1ccc2c(c1)OCO2
AC50 [8]: 4280 nM (active)
AC50 [9]: 20.6 µM (active)

Oc1ccccc1-c1cc(-c2ccccc2)no1
EC50 [10]: > 67.5 µM (inactive)
IC50 [11]: > 67.5 µM (inactive)
EC50 (cells): > 67.5 µM (inactive)

COc1cc(C2C(C(=O)c3ccc4c(c3)CC(C)O4)=C(O)C(=O)N2CCCn2ccnc2)ccc1O (stereo unspecified)
Ki (fMet-Leu-Phe receptor): 57.5 µM (inactive)

N#C[C@H]1[C@H](c2ccccc2C2=CCCCC2)[C@@H](CO)N1S(=O)(=O)c1ccccc1
AC50 [2]: 2.67 µM (active)
AC50 [3]: 7.76 µM (active)
AC50 [4]: 4.61 µM (active)
AC50 [6]: 7.94 µM (active)
AC50 [12]: 13.9 µM (active)

Cn1c(N)c(C(=O)COC(=O)c2cc(C(F)(F)F)nc3ccccc23)c(=O)n(Cc2ccccc2)c1=O
AC50 (Cytochrome P450 3A4): 15.8 µM (inconclusive)

COc1ccc2c3c([nH]c2c1)[C@H](CO)N(Cc1ccc(Cl)cc1)CC31CCN(Cc2nccs2)CC1
AC50 [13]: 781 nM (active)
AC50 [14]: 25.8 µM (active)
AC50 [15]: 1.11 µM (active)
AC50 [16]: > 39 µM (inactive)
AC50 [17]: 1.22 µM (active)
AC50 [18]: 1.22 µM (active)

CCOC(=O)c1c(NC(=O)c2cc(C3CC3)on2)sc2c1CCCC2
Ki (fMet-Leu-Phe receptor): > 66.7 µM (inactive)

Cc1ccc(-c2ccc([C@H]3[C@@H]4CN(C(=O)Nc5ccc(C(F)(F)F)cc5)C[C@H]3N4)cc2)cc1
AC50 [19]: 9.39 µM (active)
AC50 [16]: 13.1 µM (active)
AC50 [17]: 3.4 µM (active)

CN1C(=O)c2cc(NC(=O)c3ccc(Cl)cc3)ccc2OC[C@@H]2O[C@H](CC(=O)NCc3cccc(F)c3)CC[C@@H]21
AC50 [9]: 26.6 µM (active)

CCC(=O)N(C)C[C@@H]1Oc2ncc(C#CCc3ccccc3)cc2C(=O)N([C@H](C)CO)C[C@@H]1C
AC50 [19]: 16.4 µM (active)

CC1C(=O)OC2C1CC[C@@]1(C)C=CC(=O)[C@@]3(C)O[C@@]213 (stereo partly specified)
AC50 (Cytochrome P450 3A4): 39.8 µM (inconclusive)

CCCN(C)C[C@@H]1Oc2cc(C#Cc3cccnc3)ccc2S(=O)(=O)N([C@H](C)CO)C[C@@H]1C
AC50 [13]: 1450 nM (active)
AC50 [14]: > 100 µM (inactive)
AC50 [15]: 1.03 µM (active)
AC50 [17]: 2.09 µM (active)
AC50 [18]: 2.35 µM (active)

CC(=O)n1nc(-c2ccccc2)cc1-c1ccccc1
EC50 [10]: > 67.5 µM (inactive)
EC50 (cells): > 67.5 µM (inactive)

Cc1cc(C)n(-c2ccc(C(=O)Nc3ccc(C)c(S(=O)(=O)N4CCOCC4)c3)cc2)n1
AC50 [2]: 13.4 µM (active)
AC50 [3]: 18.1 µM (active)
AC50 [4]: 33.8 µM (active)
AC50 [20]: 4.54 µM (active)
AC50 [6]: > 52 µM (inactive)
AC50 [12]: 25.4 µM (active)

C(=C\c1ccc([C@@H]2[C@@H]3CN(Cc4cccnc4)C[C@H]2N3)cc1)/c1ccccc1
AC50 [16]: 10.8 µM (active)
AC50 [17]: < 0.3 µM (active)

O=C(Nc1ccccc1F)N1CCCCN2[C@@H](CO)[C@H](c3ccc(C#Cc4ccccc4)cc3)[C@@H]2C1
AC50 [16]: 10.3 µM (active)
AC50 [17]: 0.392 µM (active)

O=C(NCc1cccnc1)C1c2ccccc2C(=O)N1C1CCCCCC1 (stereo unspecified)
Ki (fMet-Leu-Phe receptor): 36.4 µM (inactive)

COc1ccccc1CNc1nc(Nc2ccccc2Cl)c2sccc2n1
AC50 [9]: 2.71 µM (active)

CN(C)CCCN(C(=O)CCOc1ccccc1)c1nc2ccc(F)cc2s1
AC50 [19]: 12.8 µM (active)

O=C(C1CCCC1)N1CC(=O)N2[C@H](C1)[C@@H](c1ccc(-c3cccnc3)cc1)[C@@H]2CO
AC50 [13]: 746 nM (active)
AC50 [14]: > 100 µM (inactive)
AC50 [15]: 1.52 µM (active)
AC50 [17]: 1.06 µM (active)
AC50 [18]: 2.97 µM (active)

Reference: ChEMBL document CHEMBL1201862, “PubChem BioAssay data set” (2004)
